# Data as given in patent US11666562B2, “Ilaprazole for inhibiting the release of enveloped viruses from cells” (Northwestern University, priority 2020, dated 2023).
# Molecular target: T1, Tsg101-UEV (Tsg101 amino acids 1-145) (Homo sapiens, UniProt Q99816)
# T1 construct: The recombinant Tsg101 fragment (amino acids 1-145), prepared as described above in Materials and Methods; His6 (N); thrombin protease cleavage site (N); made in house; host or cells: E. coli ROSETTA 2 (DE3) pLysS
# T1 sequence (Q99816 1-145): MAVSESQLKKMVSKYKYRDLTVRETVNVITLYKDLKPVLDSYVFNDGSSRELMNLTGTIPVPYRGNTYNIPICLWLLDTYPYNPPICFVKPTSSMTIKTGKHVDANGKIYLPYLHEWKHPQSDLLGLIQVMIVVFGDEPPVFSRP
# Experiment: Fluorescence thermal shift (FTS) assay, binding to Tsg101-UEV
# Conditions: for Tm (melting temperature) shift of Tsg101-UEV: FTS, Sypro-Orange, no DTT
# Description: The fluorescence-based thermal shift assay is based on the observation that a protein unfolds upon heating, exposing the hydrophobic residues within its tertiary structure. The unfolding temperature (Tm) is determined by the protein's primary sequence and solution environment. The FTS assay uses a fluorescent dye sensitive to a hydrophobic environment to probe protein stability and its modulation by small molecule ligands. The dye has a low fluorescence quantum yield when in a polar environment. Once in contact with the hydrophobic core normally buried within a folded protein that has become exposed during the thermal unfolding (melting) process, the quantum yield of the dye increases, thus providing a reporting signal. Furthermore, a protein's stability can be affected by ligand binding, resulting in an increase or decrease in its melting temperature. FTS assay uses the Tm shift upon binding of a ligand to identify hit compounds for drug discovery.
# Identification of prazole compounds that bind the UEV ubiquitin-binding domain of Tsg101. We screened chemical compounds using a fluorescence thermal shift (FTS) assay (27, 28) to identify small molecules that bind directly to a truncated form of Tsg101 (amino acids 1-145) which contains the Ubiquitin E2 variant (UEV) ubiquitin-binding domain (FIG. 1). The UEV, which contains the PT/SAP binding domain in addition to the ubiquitin-binding domain, provides chaperone functions to HIV-1 Gag that is independent of its interaction with the PS/TAP motif, and contains the prazole binding site (5). This truncated Tsg101, called Tsg101-UEV, was used because full-length Tsg101 has significant solubility issues in aqueous solution. Tsg101 is an adaptor protein and thus lacks a readily deployable functional assay, making FTS a tractable approach to identify interacting compounds. FTS monitors protein thermal denaturation using SYPRO-Orange, a dye which fluoresces when bound to hydrophobic surfaces, which allows monitoring of the changes in hydrophobic surface exposure during protein denaturation (27). Since ligand binding affects protein thermal stability, it can be detected through modulation of protein thermal denaturation (melting) as a shift in melting temperature (Tm). Tsg101-UEV has a well-defined melting curve suitable for FTS. We used the FTS assay to identify compounds that bind to Tsg101-UEV.
# Purification of Tsg101 (1-145). N-terminally His6-tagged Tsg101 UEV domain (amino acids 1-145), called Tsg101-UEV, was encoded in a pET-28b vector (Novagen—EMD Millipore), which also included a thrombin protease cleavage site (His6-Thrombin Site-Tsg101, 1-145). Tsg101-UEV was grown in LB broth with Kanamycin (30 μg/ml) in ROSETTA 2 (DE3) pLysS E. coli competent cells (EMD Millipore) and induced with 1 mM IPTG at room temperature for 3 h. Bacteria were collected by centrifugation at 4,000 rpm for 10 min at […]. Bacteria were suspended in 50 ml binding buffer (20 mM Tris-HCl, pH 7.9, 0.5 M NaCl, 5 mM Imidazole) with 1 mM PMSF, 0.1% NP40, and a Protease Inhibitor Cocktail Tablet (Roche) and sonicated for 3.5 min on ice. The sonicate was spun at 9,000 rpm for 1 h at […] in a Sorvall centrifuge. The supernatant was collected and passed through a 1.5 ml Ni-NTA Agarose column. The column was washed with 20 mM Tris-HCl, pH 7.9, 0.5 M NaCl, 30 mM Imidazole wash buffer. […] Protein concentration was determined with a Nano Drop Spectrophotometer at […]. […]
Structure (SMILES),Tm (melting temperature) shift of Tsg101-UEV,Tm (melting temperature) shift of Tsg101-UEV (listed as tenatoprazole),Tm shift of Tsg101-UEV on addition of DTT (FTS with reducing agent DTT)
COc1ccc2[nH]c([S+]([O-])Cc3ncc(C)c(OC)c3C)nc2n1 (stereo not shown) [Tenatoprazole],dose-dependent shift in the Tm,destabilizes the native protein structure,–
"COc1ccnc(C[S+]([O-])c2nc3ccc(-n4cccc4)cc3[nH]2)c1C (stereo not shown) [Ilaprazole, 2-[(4-methoxy-3-methylpyridin-2-yl)methylsulfinyl]-6-pyrrol-1-yl-1H-benzimidazole]",largest thermal shift,–,blocked by the addition of DTT
